Assay results from PubChem BioAssay AID248 (DTP/NCI, 2004).
Values joined by “and” are separate entries in the source; they are usually repeats but may differ in a detail not shown here. Identical values can stand only once. Inconclusive results and toxic doses are left out. Rule as the data show it: active = T/C of 150% or more; inactive = T/C below 125%.

Test system: L1210 leukemia ip in BDF1 mice, survival T/C
Assay: NCI In Vivo Anticancer Drug Screen. Data for tumor model L1210 Leukemia (intraperitoneal) in B6D2F1 (BDF1) mice
Conditions: higher = longer survival
Summary of the method: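 Mice bearing the transplanted tumor received compound or vehicle. Survival of the treated group was divided by that of the vehicle-treated control group to give the ratio.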

Measured: T/C

CC[n+]1c(-c2ccccc2)c2cc(N)ccc2c2ccc(N)cc21
inactive: endpoint: mean survival time, dose: 0.63 mg/kg/injection, schedule: Q01DX Z (ip), vehicle: saline 113 % of control | endpoint: mean survival time, dose: 1.25 mg/kg/injection, schedule: Q01DX Z (ip), vehicle: saline 122 % of control | endpoint: mean survival time, dose: 2.25 mg/kg/injection, schedule: Q01DX001 (ip), vehicle: saline 110 % of control and 113 % of control | endpoint: mean survival time, dose: 2.25 mg/kg/injection, schedule: Q07DX003 (ip), vehicle: saline 113 % of control | endpoint: mean survival time, dose: 2.5 mg/kg/injection, schedule: Q01DX005 (ip), vehicle: saline 109 % of control | endpoint: mean survival time, dose: 2.5 mg/kg/injection, schedule: Q01DX009 (ip), vehicle: saline 107 % of control | endpoint: mean survival time, dose: 2.5 mg/kg/injection, schedule: Q## X040 (ip), vehicle: saline 107 % of control | endpoint: mean survival time, dose: 2.5 mg/kg/injection, schedule: Q#A X Z (ip), vehicle: saline 108 % of control | endpoint: mean survival time, dose: 4.4 mg/kg/injection, schedule: Q02DX010 (ip), vehicle: saline 110 % of control | endpoint: mean survival time, dose: 4.5 mg/kg/injection, schedule: Q01DX001 (ip), vehicle: saline 104 % of control and 113 % of control | endpoint: mean survival time, dose: 4.5 mg/kg/injection, schedule: Q07DX003 (ip), vehicle: saline 109 % of control | endpoint: mean survival time, dose: 5.0 mg/kg/injection, schedule: Q01DX005 (ip), vehicle: saline 116 % of control | endpoint: mean survival time, dose: 5.0 mg/kg/injection, schedule: Q01DX006 (iv), vehicle: saline 104 % of control | endpoint: mean survival time, dose: 5.0 mg/kg/injection, schedule: Q01DX009 (ip), vehicle: saline 108 % of control | endpoint: mean survival time, dose: 5.0 mg/kg/injection, schedule: Q01DX Z (im), vehicle: saline 106 % of control | endpoint: mean survival time, dose: 5.0 mg/kg/injection, schedule: Q01DX Z (sc), vehicle: saline 110 % of control | endpoint: mean survival time, dose: 5.0 mg/kg/injection, schedule: Q## X040 (ip), vehicle: saline 111 % of control | endpoint: mean survival time, dose: 5.3 mg/kg/injection, schedule: Q02DX010 (ip), vehicle: saline 116 % of control | endpoint: mean survival time, dose: 6.6 mg/kg/injection, schedule: Q02DX010 (ip), vehicle: saline 116 % of control | endpoint: mean survival time, dose: 9.0 mg/kg/injection, schedule: Q01DX001 (ip), vehicle: saline 113 % of control and 116 % of control | endpoint: mean survival time, dose: 9.0 mg/kg/injection, schedule: Q07DX003 (ip), vehicle: saline 110 % of control | endpoint: mean survival time, dose: 9.9 mg/kg/injection, schedule: Q02DX010 (ip), vehicle: saline 115 % of control | endpoint: mean survival time, dose: 10.0 mg/kg/injection, schedule: Q01DX005 (ip), vehicle: saline 120 % of control | endpoint: mean survival time, dose: 10.0 mg/kg/injection, schedule: Q01DX006 (iv), vehicle: saline 123 % of control | endpoint: mean survival time, dose: 10.0 mg/kg/injection, schedule: Q01DX009 (ip), vehicle: saline 116 % of control | endpoint: mean survival time, dose: 10.0 mg/kg/injection, schedule: Q01DX Z (im), vehicle: saline 119 % of control | endpoint: mean survival time, dose: 10.0 mg/kg/injection, schedule: Q01DX Z (sc), vehicle: saline 116 % of control | endpoint: mean survival time, dose: 10.0 mg/kg/injection, schedule: Q## X040 (ip), vehicle: saline 112 % of control | endpoint: mean survival time, dose: 10.0 mg/kg/injection, schedule: Q#A X Z (ip), vehicle: saline 112 % of control | endpoint: mean survival time, dose: 12.5 mg/kg/injection, schedule: Q04DX003 (ip), vehicle: water 104 % of control | endpoint: mean survival time, dose: 14.85 mg/kg/injection, schedule: Q02DX010 (ip), vehicle: saline 113 % of control | endpoint: mean survival time, dose: 15.0 mg/kg/injection, schedule: Q03DX006 (ip), vehicle: saline 118 % of control | endpoint: mean survival time, dose: 18.0 mg/kg/injection, schedule: Q01DX001 (ip), vehicle: saline 116 % of control and 121 % of control | endpoint: mean survival time, dose: 18.0 mg/kg/injection, schedule: Q07DX003 (ip), vehicle: saline 122 % of control | endpoint: mean survival time, dose: 20.0 mg/kg/injection, schedule: Q01DX001 (ip), vehicle: saline 109 % of control | endpoint: mean survival time, dose: 20.0 mg/kg/injection, schedule: Q01DX001 (sc), vehicle: saline 103 % of control | endpoint: mean survival time, dose: 20.0 mg/kg/injection, schedule: Q01DX003 (ip), vehicle: saline 118 % of control | endpoint: mean survival time, dose: 20.0 mg/kg/injection, schedule: Q01DX005 (ip), vehicle: saline 110 % of control | endpoint: mean survival time, dose: 20.0 mg/kg/injection, schedule: Q01DX009 (ip), vehicle: saline 117 % of control | endpoint: mean survival time, dose: 20.0 mg/kg/injection, schedule: Q01DX Z (im), vehicle: saline 116 % of control | endpoint: mean survival time, dose: 20.0 mg/kg/injection, schedule: Q01DX Z (ip), vehicle: saline 95 % of control | endpoint: mean survival time, dose: 20.0 mg/kg/injection, schedule: Q01DX Z (oral), vehicle: saline 110 % of control | endpoint: mean survival time, dose: 20.0 mg/kg/injection, schedule: Q01DX Z (sc), vehicle: saline 122 % of control | endpoint: mean survival time, dose: 20.0 mg/kg/injection, schedule: Q## X008 (ip), vehicle: saline 94 % of control | endpoint: mean survival time, dose: 20.0 mg/kg/injection, schedule: Q## X024 (ip), vehicle: saline 107 % of control | endpoint: mean survival time, dose: 22.27 mg/kg/injection, schedule: Q02DX010 (ip), vehicle: saline 117 % of control | endpoint: mean survival time, dose: 25.0 mg/kg/injection, schedule: Q04DX003 (ip), vehicle: water 104 % of control | endpoint: mean survival time, dose: 40.0 mg/kg/injection, schedule: Q01DX001 (ip), vehicle: saline 118 % of control | endpoint: mean survival time, dose: 40.0 mg/kg/injection, schedule: Q01DX001 (sc), vehicle: saline 102 % of control | endpoint: mean survival time, dose: 40.0 mg/kg/injection, schedule: Q01DX003 (ip), vehicle: saline 110 % of control | endpoint: mean survival time, dose: 40.0 mg/kg/injection, schedule: Q01DX005 (ip), vehicle: saline 96 % of control | endpoint: mean survival time, dose: 40.0 mg/kg/injection, schedule: Q01DX009 (ip), vehicle: saline 90 % of control | endpoint: mean survival time, dose: 40.0 mg/kg/injection, schedule: Q01DX Z (oral), vehicle: saline 113 % of control | endpoint: mean survival time, dose: 40.0 mg/kg/injection, schedule: Q## X008 (ip), vehicle: saline 95 % of control | endpoint: mean survival time, dose: 40.0 mg/kg/injection, schedule: Q## X024 (ip), vehicle: saline 111 % of control | endpoint: mean survival time, dose: 40.0 mg/kg/injection, schedule: Q## X040 (ip), vehicle: saline 93 % of control | endpoint: mean survival time, dose: 60.0 mg/kg/injection, schedule: Q03DX006 (ip), vehicle: saline 93 % of control | endpoint: mean survival time, dose: 70.0 mg/kg/injection, schedule: Q01DX001 (ip), vehicle: saline 118 % of control and 119 % of control | endpoint: mean survival time, dose: 70.0 mg/kg/injection, schedule: Q07DX003 (ip), vehicle: saline 124 % of control | endpoint: mean survival time, dose: 80.0 mg/kg/injection, schedule: Q01DX001 (ip), vehicle: saline 103 % of control | endpoint: mean survival time, dose: 80.0 mg/kg/injection, schedule: Q01DX001 (sc), vehicle: saline 108 % of control | endpoint: mean survival time, dose: 80.0 mg/kg/injection, schedule: Q01DX003 (ip), vehicle: saline 98 % of control | endpoint: mean survival time, dose: 80.0 mg/kg/injection, schedule: Q01DX Z (oral), vehicle: saline 108 % of control | endpoint: mean survival time, dose: 80.0 mg/kg/injection, schedule: Q## X008 (ip), vehicle: saline 103 % of control | endpoint: mean survival time, dose: 140.0 mg/kg/injection, schedule: Q01DX001 (ip), vehicle: saline 104 % of control and 124 % of control | endpoint: mean survival time, dose: 160.0 mg/kg/injection, schedule: Q01DX001 (ip), vehicle: saline 94 % of control | endpoint: mean survival time, dose: 160.0 mg/kg/injection, schedule: Q01DX Z (oral), vehicle: saline 113 % of control | endpoint: mean survival time, dose: 160.0 mg/kg/injection, schedule: Q## X024 (ip), vehicle: saline 94 % of control | endpoint: mean survival time, dose: 200.0 mg/kg/injection, schedule: Q01DX001 (oral), vehicle: saline 103 % of control | endpoint: mean survival time, dose: 215.0 mg/kg/injection, schedule: Q04DX003 (ip), vehicle: water 109 % of control | endpoint: mean survival time, dose: 400.0 mg/kg/injection, schedule: Q01DX001 (oral), vehicle: saline 103 % of control | endpoint: mean survival time, dose: 430.0 mg/kg/injection, schedule: Q04DX003 (ip), vehicle: water 93 % of control | endpoint: mean survival time, dose: 800.0 mg/kg/injection, schedule: Q01DX001 (oral), vehicle: saline 101 % of control | endpoint: mean survival time, dose: 1600.0 mg/kg/injection, schedule: Q01DX001 (oral), vehicle: saline 102 % of control | endpoint: median survival time, dose: 3.6 mg/kg/injection, schedule: Q01DX005 (ip), vehicle: water 105 % of control | endpoint: median survival time, dose: 5.0 mg/kg/injection, schedule: Q01DX009 (ip), vehicle: water 109 % of control and 110 % of control | endpoint: median survival time, dose: 6.0 mg/kg/injection, schedule: Q01DX005 (ip), vehicle: water 100 % of control | endpoint: median survival time, dose: 10.0 mg/kg/injection, schedule: Q01DX005 (ip), vehicle: water 111 % of control | endpoint: median survival time, dose: 10.0 mg/kg/injection, schedule: Q01DX009 (ip), vehicle: water 116 % of control and 120 % of control | endpoint: median survival time, dose: 17.0 mg/kg/injection, schedule: Q01DX005 (ip), vehicle: water 111 % of control | endpoint: median survival time, dose: 17.0 mg/kg/injection, schedule: Q04DX003 (ip), vehicle: water 100 % of control | endpoint: median survival time, dose: 20.0 mg/kg/injection, schedule: Q01DX009 (ip), vehicle: water 90 % of control | endpoint: median survival time, dose: 29.0 mg/kg/injection, schedule: Q01DX005 (ip), vehicle: water 116 % of control | endpoint: median survival time, dose: 29.0 mg/kg/injection, schedule: Q04DX003 (ip), vehicle: water 100 % of control | endpoint: median survival time, dose: 40.0 mg/kg/injection, schedule: Q01DX009 (ip), vehicle: water 70 % of control | endpoint: median survival time, dose: 48.0 mg/kg/injection, schedule: Q04DX003 (ip), vehicle: water 100 % of control | endpoint: median survival time, dose: 49.0 mg/kg/injection, schedule: Q01DX005 (ip), vehicle: water 116 % of control | endpoint: median survival time, dose: 80.0 mg/kg/injection, schedule: Q04DX003 (ip), vehicle: water 105 % of control | endpoint: median survival time, dose: 134.0 mg/kg/injection, schedule: Q04DX003 (ip), vehicle: water 111 % of control
